Data: patent publication US20240300939A1 (Scorpion Therapeutics, Inc., priority 2021, published 2024)

Each compound was assayed against T1, PI3Kα H1047R (Homo sapiens, UniProt P42336, H1047R) (assay: Surface Plasmon Resonance (SPR) binding, wortmannin-blocked protein). Details: Biacore 8K, protein pre-incubated with 1 μM wortmannin, 25° C.
T1 construct: The protein contained a full-length p110-a subunit harboring the H1047R mutation with an N-terminal AviTag
Method: SPR experiments were performed on a Biacore 8K instrument. A biotinylated recombinant PI3Kα H1047R protein was used in this study. The protein contained a full-length p110-a subunit harboring the H1047R mutation with an N-terminal AviTag, complexed with a truncated p85-a subunit (amino acid residues 322-694). The protein was first incubated with 1 μM wortmannin for 30 min at RT to covalently block the ATP binding site, then immobilized onto a streptavidin sensor chip by flowing the protein through the sensor chip at typically 20 μg/mL concentration and 2 μL/min flow rate for 1200 seconds. Compound binding affinities were measured in the multi-cycle kinetics mode, at 90 μL/min flow rate with 90 seconds association time and 240 seconds dissociation time. The running buffer contained 50 mM Tris, pH 7.5, 150 mM NaCl, 0.01% Brij35, 1 mM DTT, 1 mM MgCl2, 0.05% Tween-20 and 2% DMSO. Temperature was maintained at 25° C. during experiments.

T1 sequence (P42336 whole entry H1047R): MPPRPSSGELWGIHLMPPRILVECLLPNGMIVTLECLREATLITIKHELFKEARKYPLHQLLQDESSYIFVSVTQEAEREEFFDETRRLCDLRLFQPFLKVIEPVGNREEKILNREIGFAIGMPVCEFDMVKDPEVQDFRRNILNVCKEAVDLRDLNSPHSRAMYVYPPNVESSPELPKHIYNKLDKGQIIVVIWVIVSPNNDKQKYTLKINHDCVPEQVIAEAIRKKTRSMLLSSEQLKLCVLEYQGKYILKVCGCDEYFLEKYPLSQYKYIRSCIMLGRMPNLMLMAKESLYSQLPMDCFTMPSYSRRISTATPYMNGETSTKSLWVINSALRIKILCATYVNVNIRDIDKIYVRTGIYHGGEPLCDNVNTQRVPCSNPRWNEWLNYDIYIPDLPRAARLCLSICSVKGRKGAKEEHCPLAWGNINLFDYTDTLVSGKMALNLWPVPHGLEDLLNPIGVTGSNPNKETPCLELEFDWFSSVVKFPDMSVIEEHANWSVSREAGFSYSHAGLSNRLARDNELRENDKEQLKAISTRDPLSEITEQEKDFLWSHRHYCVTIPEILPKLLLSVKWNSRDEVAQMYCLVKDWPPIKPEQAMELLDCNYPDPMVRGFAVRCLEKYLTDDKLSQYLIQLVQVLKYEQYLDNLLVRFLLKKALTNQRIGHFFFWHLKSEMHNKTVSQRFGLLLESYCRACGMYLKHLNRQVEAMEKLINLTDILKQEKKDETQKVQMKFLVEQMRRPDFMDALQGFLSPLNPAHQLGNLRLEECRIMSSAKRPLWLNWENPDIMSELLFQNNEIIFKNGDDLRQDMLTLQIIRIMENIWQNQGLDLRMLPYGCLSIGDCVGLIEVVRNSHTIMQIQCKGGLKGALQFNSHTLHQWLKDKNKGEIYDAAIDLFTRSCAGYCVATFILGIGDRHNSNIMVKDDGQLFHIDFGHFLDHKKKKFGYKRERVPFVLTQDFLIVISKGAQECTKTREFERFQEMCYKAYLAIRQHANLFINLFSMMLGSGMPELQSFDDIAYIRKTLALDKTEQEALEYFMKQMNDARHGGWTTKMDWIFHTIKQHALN
T1 sequence (P27986 322-694 partner limits assumed): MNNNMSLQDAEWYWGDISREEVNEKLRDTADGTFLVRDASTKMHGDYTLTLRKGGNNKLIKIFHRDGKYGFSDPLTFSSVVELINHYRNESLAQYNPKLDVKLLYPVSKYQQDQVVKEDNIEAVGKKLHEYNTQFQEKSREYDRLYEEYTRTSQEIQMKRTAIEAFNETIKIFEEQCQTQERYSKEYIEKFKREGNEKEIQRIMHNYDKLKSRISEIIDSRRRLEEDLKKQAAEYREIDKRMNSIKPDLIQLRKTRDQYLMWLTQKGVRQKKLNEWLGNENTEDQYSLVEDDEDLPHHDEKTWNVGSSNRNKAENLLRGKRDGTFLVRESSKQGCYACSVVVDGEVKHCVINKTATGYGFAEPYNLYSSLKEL

| Kd [nM] | SMILES |
| --- | --- |
| ≥ 500 | Cc1c([C@@H](NC(=O)N[C@H]2CC[C@H](C(N)=O)CC2)C(C)C)oc2ccc(F)cc12 (relative stereo) [Compound 42, (1R,4r)-4-(3-((R*)-1-(5-fluoro-3-methylbenzofuran-2-yl)-2-methylpropyl)ureido)cyclohexane-1-carboxamide] |

What follows are compounds tested on pAKT (S473) in T47D cells (PI3Kα H1047R mutation) (assay: HTRF pAKT (S473) in T47D cells). Details: Homo sapiens, T47D, 1 h.
Type: cell-based

| IC50 [nM] | SMILES |
| --- | --- |
| < 1000 | Cc1c([C@@H](NC(=O)Nc2cccc(N3CCC3=O)c2)C(C)C)oc2ccc(F)cc12 [Compound 104] |
| > 5000 | Cc1c([C@H](NC(=O)Nc2cnc(N3C[C@H](O)[C@H]3C)nc2)C(F)(F)F)oc2c(F)cc(F)cc12 [Compound 173] |
| < 1000 | Cc1c([C@@H](NC(=O)Nc2cnc(N3C[C@H](O)[C@H]3C)nc2)C(F)(F)F)oc2c(F)cc(F)cc12 [Compound 174] |
| < 1000 | Cc1c([C@@H](NC(=O)Nc2cnc(NCC(C)(C)O)nc2)C(F)(F)F)oc2c(F)cc(F)cc12 [Compound 183] |
| > 5000 | Cc1c([C@H](NC(=O)Nc2cnc(NCC(C)(C)O)nc2)C(F)(F)F)oc2c(F)cc(F)cc12 [Compound 184] |

Same assay, conditions: timepoint 1 hour

| IC50 [nM] | SMILES |
| --- | --- |
| < 1000 | Cc1c([C@@H](NC(=O)Nc2cnc(NC[C@@H](C)O)nc2)C(C)C)oc2ccc(F)cc12 [Compound 143] |
| > 5000 | Cc1c(C(NC(=O)Nc2ccc(N)nc2)C(F)(F)F)oc2c(F)cc(F)cc12 (centres unmarked) [Compound 181] |
| < 1000 | Cc1c(C(NC(=O)Nc2ccc(N)nc2)C(F)(F)F)oc2c(F)cc(F)cc12 (centres unmarked) [Compound 182] |
| < 1000 | Cc1c([C@@H](NC(=O)Nc2cnc(N3CC(C(C)(C)O)C3)nc2)C(F)(F)F)oc2c(F)cc(F)cc12 [Compound 205] |
| > 5000 | Cc1c([C@H](NC(=O)Nc2cnc(N3CC(C(C)(C)O)C3)nc2)C(F)(F)F)oc2c(F)cc(F)cc12 [Compound 206] |
| > 5000 | Cc1c([C@H](NC(=O)Nc2cnc(N3CC[C@@H](O)C3)nc2)C(F)(F)F)oc2c(F)cc(F)cc12 [Compound 207] |
| < 1000 | Cc1c([C@@H](NC(=O)Nc2cnc(N3CC[C@@H](O)C3)nc2)C(F)(F)F)oc2c(F)cc(F)cc12 [Compound 208] |
| < 1000 | Cc1c([C@@H](NC(=O)Nc2cnc(N3CC[C@H](O)C3)nc2)C(F)(F)F)oc2c(F)cc(F)cc12 [Compound 209] |
| > 5000 | Cc1c([C@H](NC(=O)Nc2cnc(N3CC[C@H](O)C3)nc2)C(F)(F)F)oc2c(F)cc(F)cc12 [Compound 210] |
| < 1000 | Cc1c([C@@H](NC(=O)Nc2cnc(N3CC(C(N)=O)C3)nc2)C(F)(F)F)oc2c(F)cc(F)cc12 [Compound 211] |
| > 5000 | Cc1c([C@H](NC(=O)Nc2cnc(N3CC(C(N)=O)C3)nc2)C(F)(F)F)oc2c(F)cc(F)cc12 [Compound 212] |
